Measurements from patent US11667730B2, “Oxime ester compound and photopolymerization initiator containing the same” (ADEKA CORPORATION, priority 2006, dated 2023).

Columns and labels:
[1] = Solubility of oxime ester compound in solvent; format: physicochemical; conditions: solvent CHN: cyclohexanone (footnote)
[2] = Solubility of oxime ester compound in solvent; format: physicochemical; conditions: solvent PGM-Ac: Propylene glycol-1-monomethyl ether-2-acetate
Procedure: When used as a photopolymerization initiator, they dissolve in propylene glycol-1-monomethyl ether-2-acetate or cyclohexanone as a solvent to a concentration of 1% by mass or higher, to satisfy the requirement as a photopolymerization initiator. The solubility measurement is preferably made at 20° to 30° C.

| Solubility CHN [1] | Solubility PGM-Ac [2] | SMILES |
| --- | --- | --- |
| 5.3% | 0.3% | CCCCCCCCCCCCCCCCn1c2ccc(/C(C)=N/OC(C)=O)cc2c2cc([N+](=O)[O-])ccc21 [compound 47] |
| 3.7% | 0.16% | C=CC(=O)OCCn1c2ccc(/C(CCCCCCCCCCC)=N/OC(C)=O)cc2c2cc([N+](=O)[O-])ccc21 [compound 20] |
| 7.2% | 0.4% | CCCCCCCCCCCCn1c2ccc(/C(C)=N/OC(C)=O)cc2c2cc([N+](=O)[O-])ccc21 [compound 45] |
| 9.2% | 1.4% | CCCCCCCCn1c2ccc(/C(C)=N/OC(C)=O)cc2c2cc([N+](=O)[O-])ccc21 [compound 2] |
| 42% | 5.0% | CCCCCCC/C(=N\OC(C)=O)c1ccc2c(c1)c1cc([N+](=O)[O-])ccc1n2CC(CC)CCCC (stereo not shown) [compound 48] |
| 5.0% | 0.5% | CCCCCCCCCCCCCCn1c2ccc(/C(C)=N/OC(C)=O)cc2c2cc([N+](=O)[O-])ccc21 [compound 46] |
| 45% | 6.0% | CCCCCCCCCCC/C(=N\OC(C)=O)c1ccc2c(c1)c1cc([N+](=O)[O-])ccc1n2CC(CC)CCCC (stereo not shown) [compound 50] |

The next lines start with the compound.

| SMILES | Solubility CHN [1] | Solubility PGM-Ac [2] |
| --- | --- | --- |
| CCCCC(CC)Cn1c2ccc(/C(=N/OC(C)=O)c3ccc(F)cc3C)cc2c2cc([N+](=O)[O-])ccc21 (stereo not shown) [compound 58] | 7.6% | 1.2% |
| CCn1c2ccc(/C(=N/OC(C)=O)c3ccc(OC(C)C)cc3OC(C)C)cc2c2cc([N+](=O)[O-])ccc21 [compound 57] | 12% | 2.4% |
| CCCCC(CC)Cn1c2ccc(/C(=N/OC(C)=O)c3ccc(OC(C)COC)cc3)cc2c2cc([N+](=O)[O-])ccc21 (stereo not shown) [Compound No. 54] | 14% | 20% |
| CCCCC(CC)Cn1c2ccc(/C(C)=N/OC(C)=O)cc2c2cc([N+](=O)[O-])ccc21 (stereo not shown) [Compound No. 1] | 18.9% | 4.1% |
| CCCCC(CC)Cn1c2ccc(/C(Cc3ccccc3)=N/OC(C)=O)cc2c2cc([N+](=O)[O-])ccc21 (stereo not shown) [compound 51] | 13% | 1.5% |
| CCn1c2ccc(/C(=N/OC(C)=O)c3ccc(OC(C)COC)cc3C)cc2c2cc([N+](=O)[O-])ccc21 (stereo not shown) [compound 33] | 27% | 5.1% |
| CCCCC(CC)Cn1c2ccc(/C(=N/OC(C)=O)c3ccccc3OCCOC)cc2c2cc([N+](=O)[O-])ccc21 (stereo not shown) [compound 55] | 3.2% | 1.2% |
| COCC(C)OC(=O)Cn1c2ccc(/C(C)=N/OC(C)=O)cc2c2cc([N+](=O)[O-])ccc21 (stereo not shown) [compound 10] | 0.54% | 0.091% |
| CCCCC(CC)Cn1c2ccc(/C(=N/OC(C)=O)c3ccc(C(C)(C)C)cc3)cc2c2cc([N+](=O)[O-])ccc21 (stereo not shown) [compound 53] | 24% | 5.0% |
| CCOCCn1c2ccc(/C(C)=N/OC(C)=O)cc2c2cc([N+](=O)[O-])ccc21 [compound 7] | 2.4% | 0.38% |
| CCCCC(CC)Cn1c2ccc(/C(=N/OC(C)=O)c3ccc(OCC)cc3OCC)cc2c2cc([N+](=O)[O-])ccc21 (stereo not shown) [compound 56] | 23% | 3.6% |
| CCn1c2ccc(/C(C)=N/OC(C)=O)cc2c2cc([N+](=O)[O-])ccc21 [compound 3] | 0.80% | 0.12% |
| COCC(C)OC(=O)CCCCCn1c2ccc(/C(C)=N/OC(C)=O)cc2c2cc([N+](=O)[O-])ccc21 (stereo not shown) [compound 12] | 31% | 25% |
